Test results as given in publication PMC9356065, “Novel psoralen derivatives as anti-breast cancer agents and their light-activated cytotoxicity against HER2 positive breast cancer cells” (Scientific Reports, 2022).

What was measured:
[1] = system: MDA-MB-231; assay: MTT cytotoxicity, 48 h, without UVA; assay type: cell-based; conditions: Homo sapiens, MDA-MB-231, light or radiation study; for inhibition at 50 µg/mL: I = %inhibition lower than 50%, read-out: Cytotoxic activity MDA-MB-231 %Inhibition; for IC50: hormone-independent breast cancer, read-out: Cytotoxic activity MDA-MB-231 IC50
Experimental: (§1) MDA-MB-231 (triple-negative breast cancer) was obtained from M.D. Anderson Cancer Center, Houston, TX, USA). T47-D (hormone-dependent breast carcinoma), SK-BR-3 (human HER2+ breast cancer), and MRC-5 (normal embryonic lung fibroblast) were obtained from the American Type Culture Collection (ATCC, Manassas, VA, USA).
(§2) The cytotoxic effect of tested compounds was evaluated in two breast cancer cell lines, MDA-MB-231 and T47-D. Number of survival cells after exposure to tested compounds for 48 h was determined by MTT assay, as previously described.

[2] = system: T47-D; assay: MTT cytotoxicity, 48 h, without UVA; assay type: cell-based, human; conditions: for inhibition at 50 µg/mL / IC50: Homo sapiens, T47D, light or radiation study, 48 h, without UVA; for inhibition at 50 µg/mL: I = %inhibition lower than 50%, read-out: Cytotoxic activity T47-D %Inhibition; for IC50: hormone-dependent breast cancer, read-out: Cytotoxic activity T47-D IC50; for Selectivity Index (SI): SI = IC50 for MRC-5/IC50 for T47-D
Experimental: Additionally, the cytotoxicity towards normal cells, human embryonal lung fibroblast cell MRC-5 was also assessed.
as §1, §2

[3] = molecular target: T1, aromatase (CYP19) (Homo sapiens, UniProt P11511); assay: Inhibition of aromatase (AIA); assay type: biochemical; conditions: for inhibition at 12.5 µM: I = %inhibition lower than 50%, read-out: Aromatase inhibitory activity %Inhibition
T1 sequence (P11511 1-503): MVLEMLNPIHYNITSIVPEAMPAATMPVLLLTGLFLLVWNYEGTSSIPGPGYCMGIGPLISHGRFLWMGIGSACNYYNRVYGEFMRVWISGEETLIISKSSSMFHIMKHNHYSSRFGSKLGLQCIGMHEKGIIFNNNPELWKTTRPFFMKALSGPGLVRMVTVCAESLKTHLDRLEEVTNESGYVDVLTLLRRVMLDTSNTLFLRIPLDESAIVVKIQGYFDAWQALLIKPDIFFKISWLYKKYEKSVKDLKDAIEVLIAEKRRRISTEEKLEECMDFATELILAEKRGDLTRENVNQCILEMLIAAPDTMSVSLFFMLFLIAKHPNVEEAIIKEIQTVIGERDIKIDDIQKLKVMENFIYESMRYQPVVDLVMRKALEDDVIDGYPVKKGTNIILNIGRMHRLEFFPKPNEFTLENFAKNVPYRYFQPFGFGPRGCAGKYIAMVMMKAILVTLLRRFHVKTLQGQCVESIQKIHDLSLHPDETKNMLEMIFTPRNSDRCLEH
Experimental: Estrogens are the critical risk factor for breast cancer initiation and progression and the aromatase enzyme involves in the final step conversion of androgens to estrogens[21],[22]. […] In this study, the synthesized psoralen derivatives were also tested for aromatase inhibitory activity (AIA) which is considered to be one of chemopreventive mechanisms for hormone dependent breast cancer.
Inhibition of the aromatase was performed using the method designed by Stresser et al.[39].

[4] = Scavenging of diphenyl-picryl-hydrazyl radicals (DPPH); conditions: for DPPH %Inh: screening concentration 250 µM
Text: 1. Chemoprevention activity

[5] = system: differentiated HL-60 cells; assay: Inhibition of TPA-induced superoxide anion radical generation (HL-60 Antioxidant); assay type: cell-based, human; conditions: screening concentration 100 µM; for inhibition at 100 µM: Homo sapiens, HL-60, read-out: HL-60 Antiox. %Inh
Text: Inhibition of 12-O-tetradecanoylphorbol-13-acetate (TPA)-induced superoxide anion radical generation in differentiated HL-60 cells (HL-60 Antioxidant) TPA-induced superoxide anion radical formation was detected in differentiated HL-60 cells by photometric determination of cytochrome c reduction as previously described by Gerhäuser et al., 2003.ii Superoxide dismutase (SOD;15U) was a positive control. […]

[6] = Inhibition of superoxide radical formation by xanthine/xanthine oxidase (XXO); assay type: biochemical
Text: 1. […]

[7] = system: SK-BR-3; assay: Dark and light-activated (UVA) cytotoxicity, MTT; assay type: cell-based; conditions: Homo sapiens, dark, HER2+ breast cancer
[8] = system: MDA-MB-231; assay: Dark and light-activated (UVA) cytotoxicity, MTT; assay type: cell-based; conditions: Homo sapiens, MDA-MB-231, light or radiation study; irradiation with UVA (2.0 J cm^−2); HER2− breast cancer
Experimental: (§3) The selected compounds were screened for their IC50 values against both HER2+ breast cancer (SK-BR-3), and HER2− breast cancer (MDA-MB-231) in both dark and light-activated conditions (Table 2). Additionally, a negative control study was also performed with SK-BR-3 and MDA-MB-231 cells in the absence of tested compound under UVA irradiation (See Fig S7., Supporting Information).
(§4) SK-BR-3 and MDA-MB-231 cells were seeded into 96-well cell culture plates at 5 × 10^3 cells/well and incubated for 24 h at 37 °C under 5% CO2. After that, the cells were treated with 50 μM of psoralen derivatives in DMEM with 10% FBS and the cells were continued incubation for another 4 h. After incubation, the cells were washed with PBS (3 times) and then irradiated by a 365 nm lamp with the light intensity of 2.0 J cm^−2 for 12.5 min before re-incubation for another 72 h. After incubation, the cell was treated with methylthiazolyldiphenyl-tetrazolium bromide (MTT reagent 200 μL, 0.5 mg mL^−1, Sigma-Aldrich) for 2 h. After reagent removal, DMSO was added to dissolve the formazan product and the cell viabilities were determined through UV–Vis absorption of the resulting formazan at wavelength 560 nm using a microplate reader (BMG Labtech/SPECTROstar Nano). The cell morphology images were captured by using a light microscope (Microscope Nikon, inverted digital) at 20X magnification prior to treating with MTT reagent.

[9] = system: SK-BR-3; assay: Dark and light-activated (UVA) cytotoxicity, MTT; assay type: cell-based, human; conditions: Homo sapiens, SK-BR-3, light or radiation study; irradiation with UVA (2.0 J cm^−2); HER2+ breast cancer
Experimental: as §3, §4

[10] = system: MDA-MB-231; assay: Dark and light-activated (UVA) cytotoxicity, MTT; assay type: cell-based; conditions: Homo sapiens, dark, HER2− breast cancer
[11] = system: MCF-7; conditions: Fig. 1d; cited from earlier work

Row | Compound | melting point [°C] | inhibition at 12.5 µM [3] [%] | inhibition at 50 µg/mL [1] [%] | inhibition at 50 µg/mL [2] [%] | DPPH %Inh [4] [%] | inhibition at 100 µM [5] [%] | also measured
1 | COc1c2occc2c(NC(=O)c2ccc(Br)cc2)c2ccc(=O)oc12 [3c, 4-Bromo-N-(9-methoxy-7-oxo-7H-furo[3,2-g]chromen-4-yl)benzamide] | 293 to 294 | 13 |  |  | 6 |  | IC50 [1]: 91.3 ± 7.84 µM; XXO %Inh ([6]; screening concentration 500 µM): 25%; IC50 [2]: 10.1 ± 0.53 µM; Selectivity Index (SI) [2]: > 11.9; HL-60 Antiox. %Inh [5]: Toxic
2 | COc1c2occc2c(NC(=O)c2ccc(C(F)(F)F)cc2)c2ccc(=O)oc12 [3d, N-(9-Methoxy-7-oxo-7H-furo[3,2-g]chromen-4-yl)-4-(trifluoromethyl)benzamide] | 284 to 286 | 10 | 35 |  | 7 |  | fold superiority of SI over tamoxifen citrate [2]: ≥ 2.8 fold; IC50 [2]: 13.6 ± 0.26 µM; Selectivity Index (SI) [2]: > 9.1; HL-60 Antiox. %Inh [5]: Toxic
3 | COc1c2occc2c(NCc2ccc(Br)cc2)c2ccc(=O)oc12 [4b, 4-((4-Bromobenzyl)amino)-9-methoxy-7H-furo[3,2-g]chromen-7-one] | 150 to 151 |  |  |  |  |  | IC50 [1]: 94.4 ± 4.77 µM; fold superiority of SI over tamoxifen citrate [2]: ≥ 3.7 fold; IC50 [2]: 10.4 ± 0.79 µM; Selectivity Index (SI) [2]: > 12.0; IC50 ([3]; read-out: Aromatase inhibitory activity IC50): 0.9 ± 0.2 µM; IC50 ([4]; read-out: DPPH IC50): 166 µM; HL-60 Antiox. %Inh [5]: Toxic
4 | O=C1O[C@H]([C@@H](O)CO)C(O)=C1O [Ascorbic acid, reference compound] |  |  |  |  |  |  | IC50 ([4]; half-maximal scavenging concentration, reference compound, read-out: DPPH IC50 (standard)): 43.1 µM
5 | O=C(O)c1cc(O)c(O)c(O)c1 [Gallic acid, reference compound] |  |  |  |  |  |  | IC50 ([6]; positive control, read-out: XXO IC50 (standard)): 2.8 ± 0.1 µM
6 | COc1c2occc2c(N2C(=O)CSC2c2ccc(Br)cc2)c2ccc(=O)oc12 (centres unmarked) [III] |  |  |  |  |  |  | anti-cancer activity (MCF-7) [11]: Inactive
7 | COc1c2occc2c(N=Cc2cccs2)c2ccc(=O)oc12 [II] |  |  |  |  |  |  | anti-cancer activity (MCF-7) [11]: Inactive
8 | CCNC(=S)Nc1c2ccoc2c(OC)c2oc(=O)ccc12 [IVa] |  |  |  |  |  |  | anti-cancer activity (MCF-7) [11]: Inactive
9 | COc1c2occc2c(NC(=S)NCc2ccccc2)c2ccc(=O)oc12 [IVb] |  |  |  |  |  |  | anti-cancer activity (MCF-7) [11]: Inactive
10 | COc1c2occc2c([N+](=O)[O-])c2ccc(=O)oc12 [compound 1, 9-Methoxy-4-nitro-7H-furo[3,2-g]chromen-7-one] | 237 to 238 | 34 | 39 |  | 5 | 1 | IC50 [2]: > 100 µM
11 | COc1c2occc2c(N)c2ccc(=O)oc12 [compound 2, 4-Amino-9-methoxy-7H-furo[3,2-g]chromen-7-one] | 238 to 239 | 9 | 3 | 28 | 23 | 0 | 

Continued, in another order:

Row | melting point [°C] | inhibition at 12.5 µM [3] [%] | Compound | inhibition at 50 µg/mL [1] [%] | inhibition at 50 µg/mL [2] [%] | DPPH %Inh [4] [%] | inhibition at 100 µM [5] [%] | also measured
12 | 220 to 222 | 3 | COc1c2occc2c(NC(=O)c2ccccc2)c2ccc(=O)oc12 [3a, N-(9-Methoxy-7-oxo-7H-furo[3,2-g]chromen-4-yl)benzamide] | 25 | 45 | 6 | 3 | 
13 | 276 to 277 | 6 | COc1c2occc2c(NC(=O)c2ccc(F)cc2)c2ccc(=O)oc12 [3b, 4-Fluoro-N-(9-methoxy-7-oxo-7H-furo[3,2-g]chromen-4-yl)benzamide] | 34 | 49 | 3 | 1 | 
14 | 211 to 212 | 15 | COc1ccc(C(=O)Nc2c3ccoc3c(OC)c3oc(=O)ccc23)cc1 [3e, 4-Methoxy-N-(9-methoxy-7-oxo-7H-furo[3,2-g]chromen-4-yl)benzamide] | 19 | 38 | 4 | 0 | IC50 [7]: > 100 µM; IC50 [8]: > 100 µM; IC50 [9]: 66.7 ± 2.75 µM; IC50 [10]: > 100 µM
15 | 213 to 214 | 8 | COc1c2occc2c(NC(=O)c2cccs2)c2ccc(=O)oc12 [3h, N-(9-Methoxy-7-oxo-7H-furo[3,2-g]chromen-4-yl) thiophene-2-carboxamide] | 8 | 25 | 6 | 24 | 
16 | 210 to 212 | 14 | COc1c2occc2c(NC(=O)C(C)(C)C)c2ccc(=O)oc12 [3l, N-(9-Methoxy-7-oxo-7H-furo[3,2-g]chromen-4-yl)pivalamide] | 1 | 21 | 1 | 10 | IC50 [7]: > 100 µM; IC50 [8]: > 100 µM; IC50 [9]: 48.1 ± 3.07 µM; IC50 [10]: > 100 µM
